{"source": "patent US6063814A", "about": "“Phorbol esters as anti-neoplastic and white blood cell elevating agents” (priority 1997, dated 2000)", "key": {"[1]": {"tested_on": "mouse skin", "details": "cited from earlier work"}, "[2]": {"tested_on": "HL-60 cells", "test": "TPA + low doses of Ara-C, HL-60 differentiation", "type": "cell-based, human", "from_the_text": "(2) TPA+Low Doses of Ara-C:"}, "[3]": {"tested_on": "Peripheral White Blood Cells (WBC) and Hemoglobin (Hb)", "test": "Peripheral white blood cell and hemoglobin counts in S180 cell-injected mice", "type": "in vivo", "details": "for WBC count: control 13.6±1.8; for Hb: control 134±15", "experimental": "Effect of TPA on the Peripheral White Blood Cells (WBC) and Hemoglobin (Hb) Counts in S180 Cell-Injected Mice:\nS180 cells were injected into mice. On the third day, the mice were given TPA i.p. at 50, 100 or 200 μg/kg/d for 7 days. On the second day after the treatment was completed, blood samples were taken from the tails of the treated mice for WBC and Hb analyses."}, "[4]": {"tested_on": "HL-60 cells", "test": "Effect of TPA in a human promyelocytic leukemia cell line (HL-60)", "type": "cell-based", "details": "10, 20 or 100 ng/ml", "experimental": "1. Effect of TPA in a Human Promyelocytic Leukemia Cell Line (HL-60):\nHL-60 cells at 2×10^6 cells/ml were treated with TPA. The final concentrations of TPA were 10, 20, or 100 ng/ml. The ethanol content was less than 0.01%."}, "[5]": {"tested_on": "leukemia (bone marrow myeloblast and promyelocyte)", "test": "Clinical treatment of leukemia patients with TPA", "type": "in vivo, humans"}, "[6]": {"tested_on": "cell cultures", "details": "Chemsyn product brochure; cited from earlier work"}, "[7]": {"tested_on": "human leukemia cell line HL-60", "details": "cited from earlier work"}, "[8]": {"tested_on": "skin and the mucous membrane", "details": "cited from earlier work"}, "[9]": {"test": "Chemical stability of TPA solutions on storage", "type": "physicochemical", "details": "dark", "experimental": "0.10, 0.125, 0.25 or 0.5 mg of TPA was dissolved in 1.3 ml 95-100% U.S.P. ethanol and 0.7 ml saline. Under sterile conditions, TPA was first dissolved in ethanol, then saline was added, mixed vigorously, bacteriologically filtered, and stored in sealed sterile amber vials containing either 0.10 mg/2 ml, 0.125 ml/2 ml or 0.25 mg/2 ml, 0.5 mg/2 ml.\n0.10, 0.125, 0.25 or 0.5 mg of TPA was dissolved in 0.2 ml of ethanol, 1.2 ml of isopropanol and 0.6 ml saline. Under sterile conditions, TPA was first dissolved in the ethanol and isopropanol, then saline was added, and the mixture was vigorously mixed, bacteriologically filtered and stored in sealed sterile amber vials containing either 0.10 mg/2 ml, 0.125 ml/2 ml or 0.25 mg/2 ml or 0.5 mg/2 ml."}, "[10]": {"tested_on": "S180 (Sarcoma 180) tumor cells", "test": "Tumor growth inhibition in mice injected with S180 (Sarcoma 180) tumor cells", "type": "in vivo, Kwen-Ming mice", "experimental": "Effect of TPA in Mice Injected With S180 (Sarcoma 180) Tumor Cells:\nEight groups of Kwen-Ming mice containing 7 mice per group were used in the following experiment. Two groups were untreated and six groups received the drug.\nEach Kwen-Ming mouse was injected with 5×10^6 S180 cells at the under-arm position. After 24 or 72 h, the animals were given TPA i.p. or locally at the tumor site. The injected doses of TPA were 50, 100 and 200 μg/kg/d for 7 days. The animals were sacrificed 24 hrs after the final TPA treatment and the tumors were weighed to calculate the extent of the tumor growth inhibition."}, "[11]": {"tested_on": "B16 tumor cells", "test": "Tumor growth inhibition in mice injected with B16 tumor cells", "type": "in vivo, C57 mice", "details": "statistically different from control", "experimental": "Effect of TPA in Mice Injected with B16 Tumor Cells:\nFour groups of C57 mice were used in the experiment. Each group contained 7 mice and one group was untreated. Each C57 mouse was injected with 0.2 ml of supernatant of a 1:6 w/v homogenate of B16 cells at the under-arm position. On the third day, each treatment group was given TPA i.p. at 50, 100 or 200 μg/kg/d for 8 days."}, "[12]": {"type": "in vivo, humans", "experimental": "TPA solution in a sterile syringe was injected into 200 ml of saline and mixed well for i.v. infusion.\n2. The Toxicity and Side Effects of Different TPA Doses Administered Clinically:\nOne mg TPA in solution was mixed well with 200 ml of saline for i.v. infusion which was completed in 1 h at the rate of 16 μg/min. […] The above symptoms could be alleviated by giving the patients glucocorticoids. […] The cardiac, hepatic, renal and pulmonary functions were all found to be normal.\n0.5 mg of TPA in solution was mixed well with 200 ml of saline for i.v. infusion which was completed in 1 h at the rate of 8 μg/min. […] Difficulty in breathing was not observed. The cardiac, hepatic, renal and pulmonary functions were all normal.\n0.25 mg of TPA in solution was mixed well with 200 ml of saline for i.v. infusion which was completed in 1 h at the rate of 4 μg/min. […] The cardiac, hepatic, renal and pulmonary functions were all normal."}, "[13]": {"details": "subject 8, AML-M3, retinoic acid failed"}, "[14]": {"details": "subject 9, secondary aplastic anemia, TPA 0.25 mg×2"}, "[15]": {"details": "0.25 mg/patient×4/week, i.v. infusion in 1 h"}, "[16]": {"details": "0.5 mg/patient×2/week, i.v. infusion in 1 h"}, "[17]": {"details": "1 mg/patient/week, i.v. infusion in 1 h"}}, "note": "Where two headings read alike, the source gives them in different places.", "data": [{"smiles": "CCCCCCCCCCCCCC(=O)O[C@@H]1[C@@H](C)[C@@]2(O)[C@@H](C=C(CO)C[C@]3(O)C(=O)C(C)=C[C@@H]23)[C@@H]2C(C)(C)[C@]12OC(C)=O", "note": "[TPA, Phorbol 12-Myristate-13-Acetate]", "values": [{"measurement": "mouse skin cancer promotion", "setting": "[1]; Chemsyn product brochure", "result": "extremely potent mouse skin cancer promoter"}, {"measurement": "tumor promotion", "setting": "[1]; Merck Index, 11th Edition", "result": "co-carcinogen or tumor promoter"}, {"measurement": "HL-60 cell differentiation", "setting": "[2]; TPA alone, low dose 20 ng/ml", "result": "weak cell differentiation-inducing agent"}, {"measurement": "HL-60 cell differentiation", "setting": "[2]; combination of TPA and Ara-C", "result": "induced the HL-60 cells to differentiate synergistically"}, {"measurement": "WBC count", "setting": "[3]; i.p. 50 μg/kg/d for 7 d", "result": "16.1±7.4 ×10^9 /L"}, {"measurement": "Hb", "setting": "[3]; i.p. 50 μg/kg/d for 7 d", "result": "136 ± 11", "unit": "g/L"}, {"measurement": "WBC count", "setting": "[3]; i.p. 100 μg/kg/d for 7 d", "result": "18.7±3.0 ×10^9 /L"}, {"measurement": "Hb", "setting": "[3]; i.p. 100 μg/kg/d for 7 d", "result": "149 ± 12", "unit": "g/L"}, {"measurement": "WBC count", "setting": "[3]; i.p. 200 μg/kg/d for 7 d", "result": "20.7±3.4 ×10^9 /L"}, {"measurement": "Hb", "setting": "[3]; i.p. 200 μg/kg/d for 7 d", "result": "149 ± 10", "unit": "g/L"}, {"measurement": "effect on Hb levels", "setting": "[3]; i.p. 50-200 μg/kg/d for 7 d", "result": "not greatly affected"}, {"measurement": "effect on peripheral WBC counts", "setting": "[3]; i.p. 50-200 μg/kg/d for 7 d", "result": "could increase the peripheral WBC counts in mice in a dose-dependent manner"}, {"measurement": "differentiation to macrophages", "setting": "[4]; after 4-6 days", "result": "the majority of the cells were induced to differentiate to macrophages in a dose-dependent manner"}, {"measurement": "cell aggregation and attachment", "setting": "[4]; after 3 hours", "result": "cell aggregation and attachment to the dish were observed"}, {"measurement": "proliferation of HL-60 cells", "setting": "[4]; after 3 hours", "result": "stopped proliferating"}, {"measurement": "morphological changes", "setting": "[4]; after 48 h", "result": "there were morphological changes"}, {"measurement": "Bone marrow myeloblast+promyelocyte after TPA treatment", "setting": "[5]; [13]", "result": 17, "unit": "%"}, {"measurement": "Hb after TPA treatment", "setting": "[5]; [13]", "result": 66, "unit": "g/L"}, {"measurement": "WBC after TPA treatment", "setting": "[5]; [14]", "result": "1.9e+09", "unit": "L⁻¹"}, {"measurement": "treatment termination", "setting": "[5]; [14]", "result": "Due to severe anemia, the TPA treatment was terminated"}, {"measurement": "Bone marrow Myeloblast and promyelocyte, early in TPA treatment", "setting": "[5]; subject 10, CML, 0.25 mg TPA once", "result": 9, "unit": "%"}, {"measurement": "myeloblast, promyelocyte, myelocyte", "setting": "[5]; subject 10, CML, TPA 0.25 mg once, fifth day", "result": "completely disappeared"}, {"measurement": "mitogenic activity", "setting": "[6]", "result": "powerful mitogen in cell cultures"}, {"measurement": "differentiation to nondividing macrophage-like cells", "setting": "[7]; Weinberg, Science 213:655-657, 1981", "result": "causes differentiation of cells of the human leukemia cell line HL-60 to nondividing macrophage-like cells"}, {"measurement": "induction of differentiation", "setting": "[7]; stable human promyelocytic leukemic cell line HL-60", "result": "induces differentiation"}, {"measurement": "harm on oral ingestion", "setting": "[8]", "result": "harmful if ingested orally"}, {"measurement": "irritant to skin", "setting": "[8]", "result": "highly potent irritant to skin"}, {"measurement": "chemical change on storage", "setting": "[9]; cold temperature, up to one year", "result": "no chemical change"}, {"measurement": "chemical change on storage", "setting": "[9]; room temperature, up to two months", "result": "no chemical change"}, {"measurement": "tumor cell differentiation (pathological studies)", "setting": "[10]; after TPA treatment", "result": "the tumor cells were differentiated"}, {"measurement": "inhibition of tumor growth", "setting": "[10]; i.p. 50 μg/kg daily for 7 days", "result": 41.7, "unit": "%"}, {"measurement": "inhibition of tumor growth", "setting": "[10]; i.p. 100 μg/kg daily for 7 days", "result": 54.8, "unit": "%"}, {"measurement": "inhibition of tumor growth", "setting": "[10]; i.p. 200 μg/kg daily for 7 days", "result": 30.4, "unit": "%"}, {"measurement": "inhibition of tumor growth", "setting": "[10]; locally at tumor site, 50 μg/kg daily for 7 days", "result": 35.5, "unit": "%"}, {"measurement": "inhibition of tumor growth", "setting": "[10]; locally at tumor site, 100 μg/kg daily for 7 days", "result": 49.3, "unit": "%"}, {"measurement": "inhibition of tumor growth", "setting": "[10]; locally at tumor site, 200 μg/kg daily for 7 days", "result": 59.2, "unit": "%"}, {"measurement": "rate of inhibition of tumor growth", "setting": "[11]; i.p. 50 μg/kg/d for 8 days", "result": 40.0, "unit": "%"}, {"measurement": "rate of inhibition of tumor growth", "setting": "[11]; i.p. 100 μg/kg/d for 8 days", "result": 59.4, "unit": "%"}, {"measurement": "rate of inhibition of tumor growth", "setting": "[11]; i.p. 200 μg/kg/d for 8 days", "result": 32.1, "unit": "%"}, {"measurement": "Hb in urine", "setting": "[12]; [15]", "result": "No Hb was detected in the urine"}, {"measurement": "cardiac, hepatic, renal and pulmonary functions", "setting": "[12]; [15]", "result": "normal"}, {"measurement": "chills and fever", "setting": "[12]; [15]", "result": "also observed, but to a much lesser extent than with the higher dosages"}, {"measurement": "difficulty in breathing", "setting": "[12]; [15]", "result": "no patient suffered difficulty in breathing"}, {"measurement": "Hb in urine", "setting": "[12]; [16]", "result": "Occasionally, Hb was detected in patients urine"}, {"measurement": "cardiac, hepatic, renal and pulmonary functions", "setting": "[12]; [16]", "result": "normal"}, {"measurement": "difficulty in breathing", "setting": "[12]; [16]", "result": "not observed"}, {"measurement": "tolerability", "setting": "[12]; 0.5 mg/patient×2/week, versus 1 mg", "result": "tolerated the lower dose more easily"}, {"measurement": "Hb in urine", "setting": "[12]; [17]", "result": "Hb was detected in the urine"}, {"measurement": "bleeding", "setting": "[12]; [17]", "result": "a minority of patients to bleed"}, {"measurement": "cardiac, hepatic, renal and pulmonary functions", "setting": "[12]; [17]", "result": "normal"}, {"measurement": "difficulty in breathing", "setting": "[12]; [17]", "result": "several patients suffered for a short period of time difficulty in breathing"}, {"measurement": "duration of chills", "setting": "[12]; [17]", "result": "about 30 min"}, {"measurement": "duration of fever", "setting": "[12]; [17]", "result": "3 to 5", "unit": "h"}, {"measurement": "fever, patients' temperature", "setting": "[12]; [17]", "result": "37.5-39.5 °C"}, {"measurement": "onset of chills", "setting": "[12]; [17]", "result": "One hour after TPA administration"}, {"measurement": "perspiration", "setting": "[12]; [17]", "result": "light to heavy perspiration"}, {"measurement": "reversibility of side effects", "setting": "[12]; [17]", "result": "short lived and reversible"}, {"measurement": "local irritation", "setting": "[12]; TPA application", "result": "strong local irritation"}]}]}
